Earlier results in patent publication US20190015503A1, “METHODS FOR THE PROGNOSIS AND TREATMENT OF ENDOMETRIAL CARCINOMA” (INSERM (INSTITUT NATIONAL DE LA SANTÉ DE LA RECHERCHE …, priority 2015, published 2019).

System: prostate cancer cells
Settings: dose- and time-dependent

COc1cccc(OC)c1-c1cc(C(=O)NC2(C(=O)O)C3CC4CC(C3)CC2C4)nn1-c1ccnc2cc(Cl)ccc12 (stereo not shown) [SR48692]
radio-sensitization (increasing apoptotic cell death and decreasing clonogenic survival): radio-sensitized prostate cancer cells in a dose- and time-dependent manner
